We go through one sequence from patent US9814663B2, “Peptide, method and composition for inhibiting melanogenesis” (RENORIGIN INNOVATION INSTITUTE CO., LTD., priority 2016, dated 2017).

What all share (format): cell-based, murine
One assay has as its system B16F10 melanoma cells. The assay can be described thus: Cell pigmentation of treated B16F10 cultures (FIG. 1). The note with it: 50 μg/ml peptide, 5 days. The procedure:
B16F10 melanoma cells were treated with 10-50 μg/ml peptide of SEQ ID NO: 1 (“Lf H-392-399”) for 5 days with a medium change at day 3. The cells and medium were recovered in test tubes. Kojic acid is used as […] in the cellular study due to known inhibitory effects on tyrosinase activity. IBMX is used as positive control in the cellular study due to known elevator of cellular cAMP level, […].
(§1) B16F10 murine melanoma cells were cultured in phenol red-free DMEM with 10% fetal bovine serum and penicillin/streptomycin (100 IU/50 […]) in a humidified atmosphere containing 5% CO2 in air at 37° C.

A further assay has as its system B16F10 cells. The assay can be described thus: Melanin content assay. The note with it: 10 and 50 μg/ml peptide, 5 days, p<0.05 compared to control. The procedure: as §1
Melanin contents of cultured B16F10 cells were measured according to the method (Lee et al., J Invest Dermatol 124, 405-411, 2005) with a slight modification. Briefly, B16F10 cells were seeded in 6-well plate (2×10^4 cells/well) and incubated overnight to allow cells to adhere. After treating with various test samples in an incubator for 5 days, washed, trypsinized and counted before pelleting. Melanin per cell was quantified after boiling in 1 M NaOH for 1 hour and melanin content in each sample was read from a calibration curve against synthetic eumelanin at 400 nm and converted to means±SE melanin pg/cell from 3 independent experiments.

Assay [1] has as its system Tyrosinase. The assay is described as follows: Tyrosinase assay (cell lysate, L-DOPA). The note with it: B16F10 cells, 10 and 50 μg/ml peptide, 5 days; p<0.05 compared to control. How it is done:
as §1
Tyrosinase is the rate limiting enzyme in the melanogenic pathway. Its measurement provides a highly specific and sensitive indication of degree of induction of melanogenesis. Tyrosinase enzyme activity of cultured B16F10 cells were measured according to the method of (Bellei et al., J Biol Chem 285, 7288-7299, 2010) with a slight modification. Briefly, B16F10 cells were seeded in 6-well plate (2×10^4 cells/well) and incubated overnight to allow cells to adhere. After treating with various test samples in an incubator for 5 days, cells were washed with PBS and then harvested using trypsin. At the end point, the cells were solubilized with phosphate buffer (pH 6.8) containing 1% Triton X-100. The cells were then disrupted by freezing and thawing, and the lysates were clarified by centrifugation at 10,000×g for 10 min. After protein quantification and adjustment of protein concentrations with lysis buffer, 100 μl of each lysate (each containing the same amount of protein) were aliquoted into the wells of a 96-well plate, and 100 μl of 5 mM L-DOPA were then added to each well. The absorbance was measured spectrophotometrically at 475 nm following a 30-min incubation period at 37° C. […]

For assay [2], the system named is Tyrosinase. The assay is described as follows: DOPA staining. The following applies: B16F10 cells, 10 and 50 μg/ml peptide, 4 days. The procedure: as §1
DOPA staining was also performed to measure tyrosinase enzyme activity. B16F10 cells were seeded in 6-well plate (2×10^4 cells/well) and incubated overnight to allow cells to adhere. After treating with various test samples in an incubator for 4 days, cells were washed with PBS, fixation with 2% paraformaldehyde and washing with PBS a further three times, the cells were incubated with 0.1% DOPA (dissolved in 0.1 M PBS) at 37° C. for 5 hour, and observed using light microscopy (Wang et al., Exp Ther Med 6, 967-972, 2013).

In the case of “SSASTTED (listed as Homo sapiens) [Lf H-392-399]”, the cell pigmentation result with B16F10 melanoma cells is “reduced cell pigmentation”. The “melanin synthesis (melanin content in cells and melanin secretion in culture medium)” value in the assay on B16F10 cells was “significantly decreased melanin synthesis”. The tyrosinase activity result in the assay with Tyrosinase [1] is listed as “significantly decreased tyrosinase activity”. The DOPA staining result with Tyrosinase [2] is reported as “weaker DOPA staining”.
